# Reference: patent US5486514A, “Carbamate derivatives” (Glaxo SpA, priority 1992, dated 1996)
# Assays:
# CCK-A receptor = test: CCK receptor binding, CCK-A receptor (Pancreas Assay)
# Procedure: (§1) The greater affinity of the compounds of the invention for the CCK-B receptor over the CCK-A receptor has also been established using the CCK receptor binding assays described by G Dal Fornos et al., J. Pharmcol. Exp & Ther. 261, 1056-1063, 1992.
# (§2) The binding affinity of the compounds of the invention for the CCK-A receptor (Pancreas Assay) and CCK-B receptor (guinea pig cortex assay) was determined using the procedure of G Dal Forno et al J. Pharmacol. Exp & Ther. 261--1056-1063. The pKi values determined with representative compounds of invention were as follows: […]
# CCK-B receptor = target: T1, CCK-B receptor (Cavia porcellus, UniProt H0VZC5); test: CCK receptor binding, CCK-B receptor (guinea pig cortex assay); settings: read-out: pKi CCK-B (converted)
# T1 construct: CCK-B receptor (guinea pig cortex assay); from tissue; host or cells: guinea pig cortex
# T1 sequence (H0VZC5 entry or part of it): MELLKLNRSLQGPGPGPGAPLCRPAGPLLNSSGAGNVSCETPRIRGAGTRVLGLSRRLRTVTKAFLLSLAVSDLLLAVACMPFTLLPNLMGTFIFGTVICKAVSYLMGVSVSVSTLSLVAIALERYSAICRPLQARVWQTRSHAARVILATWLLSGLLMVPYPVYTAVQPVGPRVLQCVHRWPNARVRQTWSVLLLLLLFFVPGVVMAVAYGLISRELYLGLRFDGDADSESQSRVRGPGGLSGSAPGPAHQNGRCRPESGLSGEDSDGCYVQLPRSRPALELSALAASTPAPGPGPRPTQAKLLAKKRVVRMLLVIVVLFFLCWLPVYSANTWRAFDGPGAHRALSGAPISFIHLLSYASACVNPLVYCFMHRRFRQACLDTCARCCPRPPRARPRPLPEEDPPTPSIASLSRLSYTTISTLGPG
# Procedure: as §1, §2
Compound,pKi CCK-A (CCK-A receptor),Ki (CCK-B receptor)
CC(C)CCN1C(=O)C(NC(=O)Oc2cccc(N(C)C)c2)C(=O)N(c2ccccc2)c2ccccc21 (stereo not drawn) [Example 3],6.24,3.16 nM
"CC(C)C(=O)CN1C(=O)C(NC(=O)Oc2cccc(N(C)C)c2)C(=O)N(c2ccccc2)c2ccccc21 (stereo not drawn) [Example 4, 3-[3-(N,N-dimethylamino)phenyloxycarbonylamino-2,4-dioxo-1-(3-methyl-2-oxo)but-1-yl)-5-phenyl-2,3,4,5-tetrahydro-1H-1,5-benzodiazepine]",6.25,3.09 nM
CC(C)(C)CCN1C(=O)C(NC(=O)Oc2ccccc2)C(=O)N(c2ccccc2F)c2ccccc21 (stereo not drawn) [Example 7],6.43,3.89 nM
"CN(C)c1cccc(OC(=O)NC2C(=O)N(CCC(C)(C)C)c3ccccc3N(c3ccccc3F)C2=O)c1 (racemic) [Example 9, 3-[3-(N,N-dimethylamino)phenyloxycarbonylamino]-1-(3,3-dimethylbut-1-yl)-2,4-dioxo-5-(2-fluorophenyl)-2,3,4,5-tetrahydro-1H-1,5-benzodiazepine]",6.75,1.02 nM
"CC(C)CCN1C(=O)C(NC(=O)Oc2cccc(N(C)C)c2)C(=O)N(c2ccccc2)c2ccc(Cl)cc21 (racemic) [Example 24, 8-Chloro-3-[3-(N,N-dimethylamino)phenyloxycarbonylamino]-2,4-dioxo-1-(3-methylbut-1-yl)-5-phenyl-2,3,4,5-tetrahydro-1H-1,5-benzodiazepine]",5.89,3.39 nM
"CC(C)CCN1C(=O)C(NC(=O)Oc2cccc(N(C)C)c2)C(=O)N(c2ccccc2F)c2ccccc21 (racemic) [Example 8, 3-[3-(N,N-dimethylamino)phenyloxycarbonylamino]-2,4-dioxo-5-(2-fluorophenyl)-1-(3-methylbut-1-yl)-2,3,4,5-tetrahydro-1H-1,5-benzodiazepine]",6.38,1.58 nM
O=C(NC1C(=O)N(CCC2CCCC2)c2ccccc2N(c2ccccc2F)C1=O)Oc1ccccc1 (stereo not drawn) [Example 13],6.25,4.57 nM
"COc1cccc(OC(=O)NC2C(=O)N(CCC(C)C)c3cc(Cl)ccc3N(c3ccccc3)C2=O)c1 (racemic) [Example 38, 8-Chloro-2,4-dioxo-3-(3-methoxyphenyloxycarbonyl)amino-1-(3-methyl-1-butyl)-5-phenyl-2,3,4,5-tetrahydro-1H-1,5-benzodiazepine]",5.35,20 nM
"CC(C)CCN1C(=O)C(NC(=O)Oc2ccccc2)C(=O)N(c2ccccc2)c2ccccc21 (racemic) [Example 1, 2,4-Dioxo-1-(3-methylbut-1-yl)-5-phenyl-3-(phenyloxycarbonylamino)-2,3,4,5-tetrahydro-1H-1,5-benzodiazepine]",5.29,21.4 nM
CN(C)c1cccc(OC(=O)NC2C(=O)N(CC34CC5CC(CC(C5)C3)C4)c3ccccc3N(c3ccccc3)C2=O)c1 (stereo not drawn) [Example 20],5.48,12.3 nM
"CC(C)CCN1C(=O)C(NC(=O)Oc2cccc(N(C)C)c2)C(=O)N(c2ccccc2)c2cc(Cl)c(Cl)cc21 (racemic) [Example 12, 7,8-Dichloro-3[3-(N,N-dimethylamino)phenyloxycarbonylamino]-2,4-dioxo-1-(3-methylbut-1-yl)-5-phenyl-2,3,4,5-tetrahydro-1H-1,5-benzodiazepine]",5.49,7.41 nM
"COc1cccc(OC(=O)NC2C(=O)N(CCC(C)C)c3cc(Cl)c(Cl)cc3N(c3ccccc3)C2=O)c1 (racemic) [Example 25, 7,8-Dichloro-2,4-dioxo-3-(3-methoxyphenyloxycarbonyl)amino-1-(3-methyl-1-butyl)-5-phenyl-2,3,4,5-tetrahydro-1H-1,5-benzodiazepine]",5.37,6.31 nM
